Measured values published in US20090252788A1, “Balsalazide formulations and manufacture and use thereof” (Salix Pharmaceuticals, Inc., priority 2005, published 2009).

Columns and labels:
Type in all cases: physicochemical
[1] = Solubility of balsalazide disodium in solvents
[2] = Stability of standard and sample solutions in dissolution medium; settings: room temperature, unprotected from light
Method: Prepare the stock standard solution in duplicate. For each preparation, transfer approximately 35 mg of Balsalazide Disodium Reference Standard, accurately weighed, to a 200-mL volumetric flask. Add 150 mL of dissolution medium, swirl and briefly sonicate to dissolve the flask contents. Dilute to volume with dissolution medium and mix well. Stock Standard Preparation A should be used for analysis of dissolution samples. Prep B should be used as the standard check preparation. The stock standard preparation is stable for 4 days when stored at room temperature and unprotected from light.
For each of the stock standard preparations, pipet 5.0 mL of the stock solution into a 50-mL volumetric flask, dilute to volume with dissolution medium, and mix well. The working standard preparation is stable for 4 days when stored at room temperature and unprotected from light.
Perform USP Apparatus 2 dissolution testing on six individual capsules utilizing the dissolution conditions listed below. Immediately, filter the samples using a 0.2 μm Gelman Nylon filter or a 10-μm Vankel Full Flow filter, discarding the first 2 mL of sample. Pipet 2.0 mL of the sample filtrate into a 100-mL volumetric flask, dilute to volume with dissolution medium, and mix well (nominal concentration: 0.017 mg Balsalazide Disodium per mL). […]

[3] = Particle size distribution and specific surface area (LS 200, Small Volume Module, Fraunhofer optical model); settings: for Particle size, % < 10: 10% of volume below this size; for Particle size, % < 25: 25% of volume below this size; for Particle size, % < 50: 50% of volume below this size; for Particle size, % < 75: 75% of volume below this size; for Particle size, % < 100: 100% of volume below this size; for Mean particle size (volume statistics, arithmetic) / Median particle size (volume statistics, arithmetic) / Specific Surf. Area: calculations from 0.375 μm to 2000 μm
Source text: FIG. 2 depicts and the data below tabulate for Sample 1 the arithmetic statistics describing surface area, particle size, and cumulative volume characteristics for one lot of drug substance (feed material). The particle size distribution for this lot is depicted in FIG. 2.
Table 11 A-D tabulates the arithmetic statistics describing surface area, particle size, and cumulative volume characteristics for three lots of drug substance (feed material). The particle size distributions for these lots are depicted in FIG. 7. […] Of these three lots of drug substance, 100% of the particles are less than 83.89 μm, 373.1 μm, and 69.61 μm, respectively.
Table 12 tabulates the arithmetic statistics describing surface area, particle size, and cumulative volume characteristics for three lots of drug product (encapsulated granulation samples) that were manufactured with the three lots of drug substance (feed material) as depicted in FIG. 7. […] Of these three lots of drug product, 100% of the granules are less than 1660 μm, 2000 μm, and 1512 μm, respectively. The particle size distributions for these three lots are depicted in FIG. 8.

[4] = Particle Diameter (Lower) 0.375 μm
[5] = Particle Diameter (Lower) 0.656 μm
[6] = Particle Diameter (Lower) 1.149 μm
[7] = Particle Diameter (Lower) 2.011 μm
[8] = Particle Diameter (Lower) 3.519 μm
[9] = Particle Diameter (Lower) 6.158 μm
[10] = Particle Diameter (Lower) 10.78 μm
[11] = Particle Diameter (Lower) 18.86 μm
[12] = Particle Diameter (Lower) 33.01 μm
[13] = Particle Diameter (Lower) 57.77 μm
[14] = Particle Diameter (Lower) 101.1 μm
[15] = Particle Diameter (Lower) 176.9 μm
[16] = Particle Diameter (Lower) 309.6 μm
[17] = Particle Diameter (Lower) 541.9 μm
[18] = Particle Diameter (Lower) 948.3 μm
[19] = Particle Diameter (Lower) 1660 μm

O.O.O=C([O-])CCNC(=O)c1ccc(/N=N/c2ccc(O)c(C(=O)[O-])c2)cc1.[Na+].[Na+] [Balsalazide disodium, (E)-5-[[-4-[[(2-carboxyethyl)amino]carbonyl]phenyl]azo]-2-hydroxybenzoic acid, disodium salt, dihydrate]
Solubility ([1]; in all other organic solvents): practically insoluble | Solubility ([1]; in ethanol): sparingly soluble | Solubility ([1]; in isotonic saline): freely soluble | Solubility ([1]; in methanol): sparingly soluble | Solubility ([1]; in water): freely soluble | Time the preparation is stable ([2]; stock standard preparation 0.175 mg/mL in dissolution medium): 4 days | Time the preparation is stable ([2]; working standard preparation 0.0175 mg/mL in dissolution medium): 4 days

O=C([O-])CCNC(=O)c1ccc(/N=N/c2ccc(O)c(C(=O)[O-])c2)cc1.[Na+].[Na+] [Sample 3]
Particle size, % < 10 [3]: 1.498 μm | Particle size, % < 25 [3]: 3.385 μm | Particle size, % < 50 [3]: 6.679 μm | Particle size, % < 75 [3]: 11.50 μm | Particle size, % < 100 [3]: 63.41 μm | Cum. < Volume % [3, 4]: 0% | Diff. Volume % [3, 4]: 2.13% | Cum. < Volume % [3, 5]: 2.13% | Diff. Volume % [3, 5]: 4.92% | Cum. < Volume % [3, 6]: 7.05% | Diff. Volume % [3, 6]: 6.97% | Cum. < Volume % [3, 7]: 14.0% | Diff. Volume % [3, 7]: 12.1% | Cum. < Volume % [3, 8]: 26.1% | Diff. Volume % [3, 8]: 20.4% | Cum. < Volume % [3, 9]: 46.4% | Diff. Volume % [3, 9]: 25.7% | Cum. < Volume % [3, 10]: 72.2% | Diff. Volume % [3, 10]: 19.8% | Cum. < Volume % [3, 11]: 92.0% | Diff. Volume % [3, 11]: 7.20% | Cum. < Volume % [3, 12]: 99.2% | Diff. Volume % [3, 12]: 0.79% | Cum. < Volume % [3, 13]: 99.997% | Diff. Volume % [3, 13]: 0.0029% | Cum. < Volume % [3, 14]: 100% | Diff. Volume % [3, 14]: 0% | Cum. < Volume % [3, 15]: 100% | Diff. Volume % [3, 15]: 0% | Cum. < Volume % [3, 16]: 100% | Diff. Volume % [3, 16]: 0% | Cum. < Volume % [3, 17]: 100% | Diff. Volume % [3, 17]: 0% | Cum. < Volume % [3, 18]: 100% | Diff. Volume % [3, 18]: 0% | Cum. < Volume % [3, 19]: 100% | Diff. Volume % [3, 19]: 0% | Mean particle size (volume statistics, arithmetic) [3]: 8.399 μm | Median particle size (volume statistics, arithmetic) [3]: 6.679 μm | Specific Surf. Area [3]: 16802 cm^2/mL

O=C([O-])CCNC(=O)c1ccc(/N=N/c2ccc(O)c(C(=O)[O-])c2)cc1.[Na+].[Na+] [Sample 4]
Particle size, % < 10 [3]: 3.851 μm | Particle size, % < 25 [3]: 8.660 μm | Particle size, % < 50 [3]: 17.82 μm | Particle size, % < 75 [3]: 30.86 μm | Particle size, % < 100 [3]: 309.6 μm | Cum. < Volume % [3, 4]: 0% | Diff. Volume % [3, 4]: 0.61% | Cum. < Volume % [3, 5]: 0.61% | Diff. Volume % [3, 5]: 1.55% | Cum. < Volume % [3, 6]: 2.17% | Diff. Volume % [3, 6]: 2.46% | Cum. < Volume % [3, 7]: 4.62% | Diff. Volume % [3, 7]: 4.37% | Cum. < Volume % [3, 8]: 8.99% | Diff. Volume % [3, 8]: 8.23% | Cum. < Volume % [3, 9]: 17.2% | Diff. Volume % [3, 9]: 14.1% | Cum. < Volume % [3, 10]: 31.3% | Diff. Volume % [3, 10]: 21.2% | Cum. < Volume % [3, 11]: 52.5% | Diff. Volume % [3, 11]: 25.5% | Cum. < Volume % [3, 12]: 78.0% | Diff. Volume % [3, 12]: 17.2% | Cum. < Volume % [3, 13]: 95.3% | Diff. Volume % [3, 13]: 3.43% | Cum. < Volume % [3, 14]: 98.7% | Diff. Volume % [3, 14]: 1.08% | Cum. < Volume % [3, 15]: 99.8% | Diff. Volume % [3, 15]: 0.24% | Cum. < Volume % [3, 16]: 100% | Diff. Volume % [3, 16]: 0% | Cum. < Volume % [3, 17]: 100% | Diff. Volume % [3, 17]: 0% | Cum. < Volume % [3, 18]: 100% | Diff. Volume % [3, 18]: 0% | Cum. < Volume % [3, 19]: 100% | Diff. Volume % [3, 19]: 0% | Mean particle size (volume statistics, arithmetic) [3]: 22.93 μm | Median particle size (volume statistics, arithmetic) [3]: 17.82 μm | Specific Surf. Area [3]: 7553 cm^2/mL
